Read-outs that look alike come from different tables or passages of the source.
Assays:
cortical neurons = conditions: cited from earlier work; for IC50: Park et al. 1997, read-out: IC50, protection against camptothecin-induced cortical neuronal death
[1] = tested on: PC12 cells, or rat sympathetic neurons; conditions: cited from earlier work; for concentration giving maximal protection from death: camptothecin-treated, minimum concentrations that fully inhibit DNA synthesis by proliferating PC12 cells; for cell death: day 6, in the presence or absence of camptothecin
[2] = tested on: neuronal PC12 cells and sympathetic neurons; conditions: two model systems of neuronal survival; Park et al. 1996; cited from earlier work
[3] = tested on: CDK-cyclin protein kinases; conditions: Vesely et al. 1994; cited from earlier work
A549 = test: In vitro tumor cell proliferation, A549; assay type: cell-based, human; conditions: Homo sapiens; A549; many values given with an undefined *; read-out: In vitro Tumor Cell Proliferation (IC50, μM) Lung A549
How it was run: (§1)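 Tumor cells were seeded overnight at 37° C, then exposed to drug diluted in culture medium for 3 days, refed with fresh drug-containing medium and kept 4 more days. Cells were fixed with 10% trichloroacetic acid and stained with 0.4% sulforhodamine B; alternatively, CyQUANT read proliferation after 3 days' drug exposure.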

MCF-7 = test: In vitro tumor cell proliferation, MCF-7; assay type: cell-based, human; conditions: Homo sapiens, MCF7, MCF-7; sulforhodamine B or CyQUANT assay; read-out: In vitro Tumor Cell Proliferation (IC50, μM) Breast MCF-7
Experimental: (§2) The proliferation of tumor cells was measured using a sulforhodamine B assay as described in Skehan, P., et al., J. Natl. Cancer Inst. […] Tumor cells were harvested with trypsin-EDTA, cells that excluded trypan blue were counted, added to 96-well plates and incubated overnight at 37° C. Drug was added to the wells following dilution in culture medium. Three days later, the medium was removed and replenished with medium containing fresh drug and incubated an additional 4 days. The cells were then fixed with 0.1 ml 10% trichloroacetic acid for 60 min at 4° C. The plates were rinsed five times with tap water, air-dried and stained for 30 min with 0.4% sulforhodamine B in 1% acetic acid and air-dried.
(§3) Alternatively, the CyQUANT cell proliferation assay was used to quantitate cell proliferation.
(§4) Alternatively, the CyQUANT cell proliferation assay was used to quantify tumor cell proliferation. Tumor cells were harvested with trypsin-EDTA, cells that excluded trypan blue were counted, added to 96-well plates and incubated overnight at 37° C. Drug was added to the wells following dilution in culture medium. Three days later the medium was removed and the plates frozen at −80° C. for at least 30 minutes.
MCF7 is a human breast adenocarcinoma, hormone-dependent (HTB 22);

[4] = tested on: cAMP- and cGMP-dependent kinases, and protein kinase C; conditions: cited from earlier work
DMS-114 = test: In vitro tumor cell proliferation, DMS-114; assay type: cell-based, human; conditions: many values given with an undefined *, read-out: In vitro Tumor Cell Proliferation (IC50, μM) Lung DMS-114
How it was run: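 Human small cell lung carcinoma DMS-114 cells plated overnight, then drug-treated for 3 days, medium and drug renewed, and incubated 4 more days. Growth read by sulforhodamine B staining after TCA fixation; alternatively by CyQUANT after 3 days' drug exposure and freezing at −80 °C.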

HCT-15 = test: In vitro tumor cell proliferation, HCT-15; assay type: cell-based, human; conditions: read-out: In vitro Tumor Cell Proliferation (IC50, μM) Colon HCT-15
Experimental: as §2, §3, §4

PC-3 = test: In vitro tumor cell proliferation, PC-3; assay type: cell-based, human; conditions: Homo sapiens; PC-3; many values given with an undefined *; read-out: In vitro Tumor Cell Proliferation (IC50, μM) Prostate PC-3
How it was run: as §1

DU145 = test: In vitro tumor cell proliferation, DU145; assay type: cell-based, human; conditions: Homo sapiens, DU-145, DU145; many values given with an undefined *; read-out: In vitro Tumor Cell Proliferation (IC50, μM) Prostate DU145
How it was run: as §1

HT-29 = test: In vitro tumor cell proliferation, HT-29; assay type: cell-based, human; conditions: many values given with an undefined *, read-out: In vitro Tumor Cell Proliferation (IC50, μM) Colon HT-29
How it was run: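 Growth was quantified either with CyQUANT, plates frozen at −80° C after 3 days of drug, or by sulforhodamine B staining of TCA-fixed cells after 3 days of drug plus 4 days with fresh drug. Trypan blue-excluding HT-29 cells were plated overnight at 37° C before dosing.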

SMILES | IC50 (cortical neurons) [µM] | concentration giving maximal protection from death [1] [µM] | cell death [1] | effect on death of neuronal PC12 cells and sympathetic neurons [2] | IC50 [3] [µM] | IC50 (A549) [µM] | IC50 (MCF-7) [µM] | effect on other major protein kinases [4] | IC50 (DMS-114; DMS-114) [µM] | IC50 (DMS-114; Homo sapiens, DMS-114, DMS-114) [µM] | IC50 (HCT-15; HCT-15) [µM] | IC50 (HCT-15; Homo sapiens, HCT-15, HCT-15) [µM] | IC50 (PC-3) [µM] | IC50 (DU145) [µM] | IC50 (HT-29; HT-29) [µM] | IC50 (HT-29; Homo sapiens, HT-29, HT-29) [µM] | prevention of cell death of camptothecin-treated neuronal cells (cortical neurons; cortical neurons) | prevention of cell death of camptothecin-treated neuronal cells ([1]; PC12 cells / sympathetic neurons)
CN1CC[C@H](c2c(O)cc(O)c3c(=O)cc(-c4ccccc4Cl)oc23)[C@H](O)C1 [Flavopiridol] | 0.1 | 1 | approximately 30% | suppress the death |  |  |  |  |  |  |  |  |  |  |  |  |  | 
Cn1cnc2c(NCc3ccccc3)nc(NCCO)nc21 [Olomoucine, 6-(benzylamino)-2-[(2-hydroxyethyl)amino]-9-methylpurine, reference compound] | 100 | 200 | approximately 30% | suppress the death | ~7 | 69 | 35 | no effect | 76 | 50 | 63 | 62 | 55 | > 100 | 58 | 53 |  | 
Cn1cnc2nc(NCCO)nc(NCc3ccccc3)c21 [iso-olomoucine] |  |  |  |  |  |  |  |  |  |  |  |  |  |  |  |  | failed to prevent the cell death | failed to prevent the cell death

— patent publication US6479487B1, “6, 9-disubstituted 2-[trans-(4-aminocyclohexyl)amino] purines” (Aventis Pharmaceuticals Inc., priority 1998, dated 2002)
